Reference: patent US5712109A, “Antifungal agent produced by arthrinium arundinis ATCC 74359” (Merck & Co., Inc., priority 1997, dated 1998)
≈ marks a conversion by molar mass, not a printed value.

Columns and labels:
Format in all cases: cell-based
[1] = test system: Aspergillus fumigatus (MY4839); experiment: broth microdilution antifungal assay, Aspergillus fumigatus MY4839
Protocol: (§1) In the microbroth dilution assay, microorganisms were selected by streaking a yeast culture on Sabouraud dextrose agar (SDA) and incubating for 24-48 hours at 35°-37° C. Three to five characteristic colonies were selected and transferred to a fresh plate and incubated under similar conditions. From the regrowth, 3 to 5 colonies were selected and suspended in 10 milliliters of YM broth (Difco) and incubated for 4 hours at 35°-37° C. shaking at 225 rpm. The 4 hour broth cultures were adjusted optically to 86% transmission resulting in a concentration of 1-5×10^6 cfu/ml which was further diluted 1:100 in YNBD (yeast nitrogen base with 1% dextrose) to obtain a concentration of 1-5×10^4 cfu/ml for use as inocula. […]
(§2) The plates containing the diluted compounds were then inoculated with 75 μl/well of the appropriate microorganism and incubated for 48 hours at 35°-37° C. with MIC (minimum inhibitory concentration) determinations carded out after 24 hours of incubation (except Cryptococcus strains which are read at 48 hours). […]
(§3) No MFC values are indicated for Aspergillus furnigatus since colony counts are unreliable with filamentous species. […] The MEC is scored macroscopically by direct observation of the plate wells after 24 hours and reflects microscopic alterations in cell morphology (Kurtz et al, AAC 1994 38:1480-1489).

filamentous fungi = experiment: agar plate inhibition zone test against filamentous fungi; conditions: agar plates, 28° C. or 37° C., 24 hours
Protocol: The compound is also useful for inhibiting the growth of filamentous fungi. Such use may be illustrated in the following tests with Aspergillus flavus, Fusarium oxysporum, Ustilago zeae and the like. Inocula for filamentous fungi are prepared by scraping the surface of stock plates maintained on potato dextrose agar with a moistened sterile dacron swab. The spores and mycelia are then suspended in 10 milliliters of sterile potato dextrose broth and adjusted to 70 percent transmission at 660 nm. The samples to be tested for production of antifungal agent are applied directly to the agar plates as methanol solutions. When the sample to be tested is crude broth, it may be centrifuged prior to application. The assay plates are then incubated at either 28° C. or 37° C. for 24 hours. Following incubation, the inhibition zones are measured. Effects on growth are also noted as to appearance.

[2] = test system: Saccharomyces cerevisiae (MY2140); experiment: broth microdilution antifungal assay, Saccharomyces cerevisiae MY2140
Protocol: as §1, §2
(§4) After recording M/Cs at 24 hours, the microtiter plates were shaken gently to resuspend the cells. […] For Cryptococcus neoformans, SDA plates were inoculated at 48 hours after recording MICs and incubated 48 hours before reading the MFG. […]

[3] = test system: Candida tropicalis (MY1012); experiment: broth microdilution antifungal assay, Candida tropicalis MY1012
Protocol: as §1, §2, §4

[4] = test system: Candida tropicalis (MY1124); experiment: broth microdilution antifungal assay, Candida tropicalis MY1124
Protocol: as §1, §2, §4

[5] = test system: Candida parapsilosis (MY1010); experiment: broth microdilution antifungal assay, Candida parapsilosis MY1010; conditions: Lodderomyces parapsilosis
Protocol: as §1, §2, §4

[6] = test system: Candida albicans (MY1055); experiment: broth microdilution antifungal assay, Candida albicans MY1055
Protocol: as §1, §2, §4

[7] = test system: Cryptococcus neoformans (MY2062); experiment: broth microdilution antifungal assay, Cryptococcus neoformans MY2062
Protocol: (§5) In the microbroth dilution assay, microorganisms were selected by streaking a yeast culture on Sabouraud dextrose agar (SDA) and incubating for 24-48 hours at 35°-37° C. Three to five characteristic colonies were selected and transferred to a fresh plate and incubated under similar conditions. From the regrowth, 3 to 5 colonies were selected and suspended in 10 milliliters of YM broth (Difco) and incubated for 4 hours at 35°-37° C. shaking at 225 rpm. The 4 hour broth cultures were adjusted optically to 86% transmission resulting in a concentration of 1-5×10^6 cfu/ml which was further diluted 1:100 in YNBD (yeast nitrogen base with 1% dextrose) to obtain a concentration of 1-5×10^4 cfu/ml for use as inocula.
(§6) The test compound was dissolved at 256 μg/ml in 10% DMSO and diluted 2× into the first well to achieve a concentration of 256 μg/ml at 5% DMSO in the first well. Compounds are subsequently serially diluted 2× and cell suspension is added to each well resulting in an additional 2× dilution of compound. 75 μl of said solution is delivered to each well in colunto 1 of a 96-well, U-bottomed plate. […]
as §4

[8] = test system: Aspergillus fumigatus (MY5668); experiment: broth microdilution antifungal assay, Aspergillus fumigatus MY5668
Protocol: as §1, §2, §3

[9] = test system: Candida pseudotropicalis (MY2099); experiment: broth microdilution antifungal assay, Candida pseudotropicalis MY2099; conditions: Kluyveromyces marxianus
Protocol: as §1, §2, §4

[10] = test system: Cryptococcus neoformans (MY2061); experiment: broth microdilution antifungal assay, Cryptococcus neoformans MY2061
Protocol: as §5, §6, §4

Candida krusei = experiment: broth microdilution antifungal assay, Candida krusei; conditions: Pichia kudriavzevii
Protocol: as §1, §2, §4

[11] = test system: Candida glabrata (MY1381); experiment: broth microdilution antifungal assay, Candida glabrata MY1381; conditions: Nakaseomyces glabratus
Protocol: as §1, §2, §4

[12] = test system: Candida guillermondii (MY1019); experiment: broth microdilution antifungal assay, Candida guillermondii MY1019
Protocol: as §1, §2, §4

[13] = test system: Candida albicans (CLY539); experiment: broth microdilution antifungal assay, Candida albicans CLY539
Protocol: as §1, §2, §4

Candida albicans (CA2) = experiment: broth microdilution antifungal assay, Candida albicans CA2
Protocol: as §1, §2, §4

panel of fungi = experiment: broth microdilution antifungal assay, panel of fungi, comparison with amphotericin B; conditions: MIC/MFC broth microdilution assay
Protocol: In the microbroth dilution assay, microorganisms were selected by streaking a yeast culture on Sabouraud dextrose agar (SDA) and incubating for 24-48 hours at 35°-37° C. Three to five characteristic colonies were selected and transferred to a fresh plate and incubated under similar conditions. From the regrowth, 3 to 5 colonies were selected and suspended in 10 milliliters of YM broth (Difco) and incubated for 4 hours at 35°-37° C. shaking at 225 rpm. […]
as §2, §4, §3

[14] = 24 hours, 35°-37° C., read-out: Minimum Inhibitory Concentration (MIC)
[15] = severe morphological change, scored macroscopically after 24 hours, read-out: Minimum Effective Concentration (MEC)
[16] = no growth or growth of ≤4 colonies on SDA, read-out: Minimum Fungicidal Concentration (MFC)
[17] = SDA incubated 48 hours, no growth or growth of ≤4 colonies, read-out: Minimum Fungicidal Concentration (MFC)
[18] = read at 48 hours, 35°-37° C., read-out: Minimum Inhibitory Concentration (MIC)

In the case of `CC(CCC(O)C(C)(O)CO)C1(O)CCC2(C)C3=C(CCC21C)C1(C)CCC(OC(=O)CCC(=O)O)C(C)(C)C1CC3` (centres unmarked) [Compound I], the MIC [1, 14] is reported as over 64 µg/mL, the minimal effective concentration [1, 15] is reported as 0.5 µg/mL and the “inhibition of growth of the fungal organisms (inhibition zones)” value (filamentous fungi) is reported as “effectively inhibit growth of the fungal organisms”. It also gave an MIC [2, 14] of 8 µg/mL (≈ 13.5 µM), an MFC [2, 16] of 8 µg/mL (≈ 13.5 µM) and an MIC [3, 14] of 16 µg/mL (≈ 27 µM). For the same compound, the MFC [3, 16] was 16 µg/mL (≈ 27 µM), the MIC [4, 14] was 8 µg/mL (≈ 13.5 µM) and the MFC [4, 16] was 8 µg/mL (≈ 13.5 µM). The MIC [5, 14] was 4 µg/mL (≈ 6.75 µM), the MFC [5, 16] was 2 µg/mL (≈ 3.37 µM) and the MIC [6, 14] was 4 µg/mL (≈ 6.75 µM). The MFC [6, 16] was 4 µg/mL (≈ 6.75 µM), the MFC [7, 17] was 64 µg/mL (≈ 108 µM) and the MIC [7, 18] was 32 µg/mL (≈ 54 µM). For the same compound, the MIC [8, 14] was 64 µg/mL (≈ 108 µM), the minimal effective concentration [8, 15] was 1 µg/mL and the MIC [9, 14] was 8 µg/mL (≈ 13.5 µM). The MFC [9, 16] was 8 µg/mL (≈ 13.5 µM), the MFC [10, 17] was 32 µg/mL (≈ 54 µM) and the MIC [10, 18] was over 64 µg/mL. It also gave an MIC (Candida krusei; [14]) of 4 µg/mL (≈ 6.75 µM), an MFC (Candida krusei; [16]) of 2 µg/mL (≈ 3.37 µM) and an MIC [11, 14] of 2 µg/mL (≈ 3.37 µM). The MFC [11, 16] was 1 µg/mL (≈ 1.69 µM), the MIC [12, 14] was 64 µg/mL (≈ 108 µM) and the MFC [12, 16] was 64 µg/mL (≈ 108 µM). The MIC [13, 14] was 2 µg/mL (≈ 3.37 µM), the MFC [13, 16] was 2 µg/mL (≈ 3.37 µM) and the MIC (Candida albicans (CA2); [14]) was 16 µg/mL (≈ 27 µM). The MFC (Candida albicans (CA2); [16]) was 16 µg/mL (≈ 27 µM) and the “effectiveness against a panel of fungi relative to amphotericin B” value (panel of fungi) was “at concentrations comparable to an established antifungal agent, amphotericin B”.
